Active and inactive are the calls of the source.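 How the source made its calls: active means compounds giving half or more protection of infected cells from virus-caused growth loss, again on retest; inactive means the rest.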
System: CEM cells HIV-1 protection, formazan growth assay
Experiment: NCI AIDS Antiviral Assay
Settings: for IC50: measured here: growth of uninfected CEM cells
Outline: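 Steps: treat uninfected and HIV-1-infected human CEM cells at five drug levels; quantify growth by soluble formazan; retest any compound reaching 50% protection; classify actives from the retest.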

SMILES | EC50 [µM] | IC50 [µM] | outcome
C=CCn1c(-c2ccc([N+](=O)[O-])cc2)cs/c1=N\C(P(=O)(O)O)P(=O)(O)O | > 200 | > 200 | –
CC(=O)C(N)=NCc1ccccc1 | > 1410 | 1020 | –
Cn1cnc(/C=C/C#N)c1 | > 200 | > 200 | –
NNC(=O)C(=O)N/N=C(/CCC(=O)NCCc1ccccc1)CC(=O)c1ccccc1 | – | – | inactive
O=C1CC(=O)NC(=NN2C(=O)/C(=C/c3ccc(Cl)cc3)N=C2c2ccccc2)N1 | > 200 | 32.4 | –
O=c1[nH]c2nc3ccccc3c(=O)n2/c1=C/c1ccco1 | > 200 | > 200 | –
CC1Cc2c(Br)nc(N)nc2NC1=O (configuration not stated) | > 200 | > 200 | –
CC[n+]1c(/C=C/c2cc(C(=O)OC)n3c2sc2ccccc23)sc2ccccc21 | > 200 | 11 | –
O=C(Cc1ccccc1)NC(=O)Nc1ccccc1 | > 20.4 | > 20.4 | –
Oc1ccccc1/C=N/NC(=S)Nc1cccc2cc3ccccc3nc12 | > 200 | 0.575 | –
COc1ccc(C2C(C#N)=C(S)N(C3OC(COC(C)=O)C(OC(C)=O)C(OC(C)=O)C3OC(C)=O)C(c3ccccc3)=C2C(C)=O)cc1 (configuration not stated) | > 200 | 25.1 | –
C=CCCC1(O)C(O)C(CO)O[C@H](O[C@@]2(CO)OC(CO)C(O)C2O)C1O (some centres not stated) | – | – | inactive
CC(C)N(c1cc2c(cc1F)c(=O)c(C(=O)O)cn2-c1ccc(N2CCN(C)CC2)cn1)C(C)C | > 200 | > 200 | –
CN1CCC/C1=C1/C(=O)N(c2ccccc2)N=C1c1ccc[nH]1 | 191 | > 200 | –
NNC(=O)NNC(=O)NN | > 200 | > 200 | –
CNC1=CC(=O)C2=C(C1=O)[C@H]1CC[C@]3(C)C(=O)CC[C@H]3[C@@H]1CC2 | > 200 | 30.2 | –
O=S(=O)(OI(O)CC(F)(F)F)C(F)(F)F | > 200 | > 200 | –
CCOC(=O)c1ccc(OCc2nc3cc(C(F)(F)F)ccc3nc2-c2ccccc2)cc1 | > 200 | 87.1 | –
COC(=O)CCC1(CCC(=O)OC)CCCCCCC(CCC(=O)OC)(CCC(=O)OC)C(=O)C1=O | > 200 | > 200 | –
NC(=O)NCc1c(C(N)=O)ncn1Cc1ccccc1 | – | – | inactive
Cc1cc(Cl)ccc1N1C(=O)C(=O)C(c2nc3ccccc3o2)C(=O)C1=O | – | – | inactive
O=C1NC(=O)C(=Cc2ccc(F)cc2)C(=O)N1 | > 112 | > 112 | –

SMILES | EC50 [µM] | IC50 [µM] | outcome
CCCC(=O)OC(C(Cl)(Cl)Cl)P(=O)(OC)OC (configuration not stated) | > 200 | 30.9 | –
C1=CC2=CC=CC3c4nc5ccc6ccccc6c5nc4C(=C1)C23 (configuration not stated) | > 200 | > 200 | –
Cc1ccc(-n2nc3c(c(C#N)c2=O)-c2ccccc2C3=O)cc1 | – | – | inactive
CCOC(=O)C(Cl)(NC(=O)c1c(F)c(F)c(F)c(F)c1F)C(F)(F)F (configuration not stated) | – | – | inactive
Nn1c(SCC(=O)NCc2ccccc2)nc2ccccc2c1=O | 12.6 | 95.5 | –
CCC1(CC)C(=O)NN(C(=O)c2ccccc2)C1=O | > 200 | > 200 | –
O=S1Nc2c(Cl)cc(Cl)c3c(Cl)cc(Cl)c(c23)N1 | – | – | inactive
COc1ccc(-c2c3c(nc4nc(SC)nc(SC)c24)CCCC3)cc1OC | > 100 | 81.3 | –
NCCCCNCCCNC(=O)c1nc(-c2csc(CCN)n2)sc1Cl | > 200 | > 200 | –
CC1=NN(c2ccccc2)C(=O)C1=C1SCCS1 | > 182 | > 182 | –
O=C1c2ccccc2C(=O)N1CCc1ncc(-c2ccccc2)[nH]1 | > 200 | > 200 | –
CC1COS(=O)(=O)CS(=O)(=O)O1 (configuration not stated) | > 1150 | > 1150 | –
CCc1ccccc1NC(=O)/C(CC(=O)c1c(C)n([O-])c2ccccc2[n+]1=O)=N\NS(=O)(=O)c1ccc(C)cc1 | > 23.4 | 13.5 | –
OC(Nc1ccccn1)(C(F)(F)F)C(F)(F)F | > 200 | > 200 | –
Cc1cc2c(cc1C)NC(=O)C(C)CN2 (configuration not stated) | > 200 | > 200 | –
COc1cc(Br)c(OC)c2c(OC)cc(C)cc12 | > 200 | 35.5 | –
O=C1/C(=C\c2ccccc2Cl)CCCC/C1=C\c1ccccc1Cl | > 200 | 166 | –
Cc1cc(Cl)ccc1Nc1nc2c(s1)C(=O)c1ccccc1C2=O | – | – | inactive
C/C(O)=C(/C=N/C(N)=S)C(N)=O | – | – | inactive
CC(=O)c1c2c(cc3c1CCC3)CCC2 | > 200 | > 200 | –
Cc1nc(C(N)=S)sc1C(=O)/C=C/c1cccc(O)c1 | > 85.1 | > 85.1 | –
Cc1[nH]cc2c1C(c1ccccc1)=NCC(=O)N2 | > 200 | > 200 | –

SMILES | EC50 [µM] | IC50 [µM] | outcome
CC1=C(C(=O)NCc2ccccc2)C(c2ccccc2C)C(C(=O)NCc2ccccc2)=C(C)N1 | > 21.4 | > 21.4 | –
COC(=O)/C=C(/C(=O)OC)c1c(C)cc2c(C)cc(C)cc(C)c1-2 | > 200 | 10.7 | –
COC(=O)/C=C(C)/C=C\COC1CCCCO1 (configuration not stated) | > 200 | > 200 | –
N#Cc1cnc(-n2[nH]c3c(c2=O)CCCC3)[nH]c1=O | – | – | inactive
CCOP(=O)(OCC)C1(O)CC(n2cc(C)c(=O)[nH]c2=O)OC1CO (configuration not stated) | > 200 | > 200 | –
COC(=O)c1ccc(OCCn2nnc(C(=O)NN)c2C(=O)NN)cc1 | > 100 | > 100 | –
CC1=CC(C)(C)N=C2SC(c3ccc(N)cc3)=NN12 | > 251 | 2 | –
COc1cccc(NC(=O)CC(=O)N2N=C(C)C(N=Nc3ccc(S(=O)(=O)CCOS(=O)(=O)O)cc3)C2=O)c1 (configuration not stated) | > 200 | 3.02 | –
O=C1OC2C(O)COC2(O)C1(O)C(C[N+](=O)[O-])c1ccc(Cl)cc1 (configuration not stated) | > 200 | 17 | –
O=C(c1ccc([N+](=O)[O-])cc1[N+](=O)[O-])N(/N=C/C=C/c1ccccc1)c1nnc(-c2ccccc2)c(-c2ccccc2)n1 | > 9.12 | > 9.12 | –
CC(=O)Oc1ccc2c(c1)[nH]c1c3ccc(OC(C)=O)cc3oc(=O)c21 | > 200 | 11.7 | –
C/C=C/C(=O)C(C)C1=CC(=O)C2=C(OC34CC[C@H](O)C(C)(C)[C@@H]3CC[C@H](C)C4(C)C2)C1=O (some centres not stated) | – | – | inactive
CS(=O)(=O)N/N=C/CN1C(=O)c2ccccc2C1=O | > 891 | > 891 | –
COc1ccc(-c2oc3c(OC)c(OC)cc(O)c3c(=O)c2OC)cc1 | > 200 | > 200 | –
OC(c1ccccc1)c1c(-c2ccccc2)[nH]c(-c2ccccc2)c1C(O)c1ccccc1 (configuration not stated) | – | – | inactive
NNC(=O)/C(NC(=O)c1ccccc1)=C(\N)c1cccc([N+](=O)[O-])c1 | > 15.1 | > 15.1 | –
CCOC(=O)c1c(NC(=O)c2ccc(OC)cc2)sc2c1CCCC2 | > 151 | > 151 | –
NC(CSCCCO)C(=O)O (configuration not stated) | – | – | inactive
CC(C)c1cc2c(O)c(c1)Cc1cc(C(C)C)cc(c1O)Cc1cc(C(C)C)cc(c1O)Cc1cc(C(C)C)cc(c1O)Cc1cc(C(C)C)cc(c1O)Cc1cc(C(C)C)cc(c1O)C2 | > 14.5 | > 14.5 | –
O=[N+]([O-])c1cccc(S(=O)(=O)c2ccc(F)c([N+](=O)[O-])c2)c1 | > 200 | 0.501 | –
CS(=O)(=O)NNS(=O)(=O)c1ccc(Cl)cc1 | > 126 | > 126 | –
